According to US4266001A, “Light-sensitive mixture” (Hoechst Aktiengesellschaft, priority 1978, dated 1981):

Assay: Solubility of naphthoquinone diazides in ethylene glycol monomethyl ether
Type: physicochemical
Details: for Solubility (%): 26° C., stirred for 2 hours, 2 g in 50 g, crystalline samples, substantially free from amorphous fractions; for solubility (in words): Table 2
Procedure: The solubility of the new naphthoquinone diazides, as compared with the known bis-1,2-naphthoquinone-2-diazide-5-sulfonic acid ester of 2,2-bis-(4-hydroxyphenyl)-propane (comparison compound V), was determined as follows: 2 g of the naphthoquinone diazide were suspended in each case in 50 g of ethylene glycol monomethyl ether and stirred for 2 hours at 26° C. Then, the mixture was filtered by suction, the filter residue was washed successively with 10 cm^3 of methanol and 10 cm^3 of ether and dried in vacuo and its weight was determined. The solubilities in ethylene glycol monomethyl ether, listed in Table 2, were calculated from the difference to the quantity employed: […]
In all cases, it was confirmed by diffraction diagrams taken with an X-ray diffractometer that the samples tested were substantially free from amorphous fractions. In every case, the solubility of a solid compound which is wholly or partially present in the amorphous state is markedly higher than that of the corresponding crystalline compound. A comparison with these values is, however, unreliable because the solubilities of amorphous compounds cannot be determined with exact reproducibility due to the differing tendency of supersaturated solutions to crystallize.

Solubility (%) | solubility (in words) | Compound
0.95 |  | CCCOC(=O)C(c1ccc(OS(=O)(=O)c2cccc3c2C=CC(=[N+]=[N-])C3=O)cc1)c1ccc(OS(=O)(=O)c2cccc3c2C=CC(=[N+]=[N-])C3=O)cc1 (centres unmarked) [Compound 19]
0.75 |  | CC(C)(c1ccc(OS(=O)(=O)c2cccc3c2C=CC(=[N+]=[N-])C3=O)cc1)c1ccc(OS(=O)(=O)c2cccc3c2C=CC(=[N+]=[N-])C3=O)cc1 [V, bis-1,2-naphthoquinone-2-diazide-5-sulfonic acid ester of 2,2-bis-(4-hydroxyphenyl)-propane, reference compound]
1.85 | very good solubility | COC(=O)CCC(C)(c1ccc(OS(=O)(=O)c2cccc3c2C=CC(=[N+]=[N-])C3=O)cc1)c1ccc(OS(=O)(=O)c2cccc3c2C=CC(=[N+]=[N-])C3=O)cc1 (centres unmarked) [Compound 2]
> 7.4 | very good solubility | CCCCOC(=O)C(c1ccc(OS(=O)(=O)c2cccc3c2C=CC(=[N+]=[N-])C3=O)cc1)c1ccc(OS(=O)(=O)c2cccc3c2C=CC(=[N+]=[N-])C3=O)cc1 (centres unmarked) [Compound 20]
3.80 | very good solubility | CCOCCOC(=O)CCC(C)(c1ccc(OS(=O)(=O)c2cccc3c2C=CC(=[N+]=[N-])C3=O)cc1)c1ccc(OS(=O)(=O)c2cccc3c2C=CC(=[N+]=[N-])C3=O)cc1 (centres unmarked) [Compound 8]
6.0 | very good solubility | CCOCCOC(=O)C(c1ccc(OS(=O)(=O)c2cccc3c2C=CC(=[N+]=[N-])C3=O)cc1)c1ccc(OS(=O)(=O)c2cccc3c2C=CC(=[N+]=[N-])C3=O)cc1 (centres unmarked) [Compound 22]
1.54 | very good solubility | COC(C)CCOC(=O)CCC(C)(c1ccc(OS(=O)(=O)c2cccc3c2C=CC(=[N+]=[N-])C3=O)cc1)c1ccc(OS(=O)(=O)c2cccc3c2C=CC(=[N+]=[N-])C3=O)cc1 (centres unmarked) [Compound 9]
0.91 |  | COCCOC(=O)CCC(C)(c1ccc(OS(=O)(=O)c2cccc3c2C=CC(=[N+]=[N-])C3=O)cc1)c1ccc(OS(=O)(=O)c2cccc3c2C=CC(=[N+]=[N-])C3=O)cc1 (centres unmarked) [Compound 7]
0.86 |  | CCOC(=O)CCC(C)(c1ccc(OS(=O)(=O)c2cccc3c2C=CC(=[N+]=[N-])C3=O)cc1)c1ccc(OS(=O)(=O)c2cccc3c2C=CC(=[N+]=[N-])C3=O)cc1 (centres unmarked) [Compound 3]
